Source: article PMC12027554, “Inhibition of ABCG2 by SCO-101 Enhances Chemotherapy Efficacy in Cancer” (International Journal of Molecular Sciences, 2025)

How the values were obtained:
MDR1/ABCB1 = MDR1/ABCB1 (Homo sapiens, UniProt P08183); assay: Bidirectional transport of digoxin across Caco-2 cell monolayers; type: cell-based; design: endogenous in cells; host or cells: Caco-2; details: Caco-2 monolayers, 50 µM SCO-101
Protocol: Bidirectional transport experiments (basolateral-to-apical and apical-to-basolateral) with the ABCG2 substrate estrone-3-sulfate and the MDR1/ABCB1 substrate digoxin were performed in Caco-2 cell monolayers as previously described.

ABCG2 = biological target: T1, ABCG2 (Homo sapiens, UniProt Q9UNQ0); assay: Efflux transporter inhibition, vesicular uptake into inside-out membrane vesicles (ABCG2); type: biochemical; design: purchased SOLVO biotechnology, Budapest, Hungary
T1 sequence (Q9UNQ0 1-655): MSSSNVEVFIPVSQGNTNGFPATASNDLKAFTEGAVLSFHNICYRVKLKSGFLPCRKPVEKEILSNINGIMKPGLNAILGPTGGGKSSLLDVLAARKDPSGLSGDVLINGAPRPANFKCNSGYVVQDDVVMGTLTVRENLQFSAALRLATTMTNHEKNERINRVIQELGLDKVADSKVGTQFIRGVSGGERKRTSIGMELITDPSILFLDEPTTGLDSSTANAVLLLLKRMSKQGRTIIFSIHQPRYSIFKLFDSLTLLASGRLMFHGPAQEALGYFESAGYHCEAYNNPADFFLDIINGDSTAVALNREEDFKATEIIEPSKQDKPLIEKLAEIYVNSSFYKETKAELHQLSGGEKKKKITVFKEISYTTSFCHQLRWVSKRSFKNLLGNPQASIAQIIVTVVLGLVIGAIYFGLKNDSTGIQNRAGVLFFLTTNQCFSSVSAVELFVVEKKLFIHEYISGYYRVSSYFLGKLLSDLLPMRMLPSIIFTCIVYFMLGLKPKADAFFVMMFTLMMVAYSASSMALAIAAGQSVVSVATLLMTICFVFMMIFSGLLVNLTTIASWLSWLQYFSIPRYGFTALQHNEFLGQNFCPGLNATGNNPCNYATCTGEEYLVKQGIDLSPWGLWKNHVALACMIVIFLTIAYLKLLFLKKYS
Protocol: Efflux transporter inhibition was evaluated by measuring vesicular uptake into inside-out membrane vesicles (SOLVO biotechnology, Budapest, Hungary) expressing a single human ABC transporter (0.67 mg/mL ABCB1; 0.67 mg/mL ABCC2; 0.33 mg/mL ABCG2 membrane protein) of a probe substrate (1 μM N-methyl-quinidine for ABCB1; 100 μM 5(6)-carboxy-2′,7′-dichlorofluorescein for ABCC2; 1 μM Eestrone-3-sulfate for ABCG2) in the presence of SCO-101 with and without ATP (4 mM) in 96-well plate format. Control solvent and control inhibitors (4–60 μM verapamil for […]; 1–15 μM sulfasalazine for ABCG2; 5.5–150 μM benzbromarone for ABCC2) were incubated in parallel. Vesicular uptake was conducted at 37 °C in incubation buffer (10 mM Tris-HCl, pH 7.4, 10 mM MgCl2, 250 mM sucrose) and terminated after 1 min (ABCB1 and ABCG2) or 5 min (ABCC2) by adding ice-cold washing buffer (10 mM Tris-HCl, pH 7.4, 100 mM NaCl, 250 mM sucrose). […] Probe quantification was conducted using LC-MS/MS peak areas (solvent control with ATP − AMP = 100%). […] The remaining transporter activity % was calculated according to the formula below, and fitting was performed using GraphPad Prism: A%=AATP,sample−AAMP,sample/AATP,solvent−AAMP,solvent

MDR1/ABCB1, sequence (P08183 whole entry): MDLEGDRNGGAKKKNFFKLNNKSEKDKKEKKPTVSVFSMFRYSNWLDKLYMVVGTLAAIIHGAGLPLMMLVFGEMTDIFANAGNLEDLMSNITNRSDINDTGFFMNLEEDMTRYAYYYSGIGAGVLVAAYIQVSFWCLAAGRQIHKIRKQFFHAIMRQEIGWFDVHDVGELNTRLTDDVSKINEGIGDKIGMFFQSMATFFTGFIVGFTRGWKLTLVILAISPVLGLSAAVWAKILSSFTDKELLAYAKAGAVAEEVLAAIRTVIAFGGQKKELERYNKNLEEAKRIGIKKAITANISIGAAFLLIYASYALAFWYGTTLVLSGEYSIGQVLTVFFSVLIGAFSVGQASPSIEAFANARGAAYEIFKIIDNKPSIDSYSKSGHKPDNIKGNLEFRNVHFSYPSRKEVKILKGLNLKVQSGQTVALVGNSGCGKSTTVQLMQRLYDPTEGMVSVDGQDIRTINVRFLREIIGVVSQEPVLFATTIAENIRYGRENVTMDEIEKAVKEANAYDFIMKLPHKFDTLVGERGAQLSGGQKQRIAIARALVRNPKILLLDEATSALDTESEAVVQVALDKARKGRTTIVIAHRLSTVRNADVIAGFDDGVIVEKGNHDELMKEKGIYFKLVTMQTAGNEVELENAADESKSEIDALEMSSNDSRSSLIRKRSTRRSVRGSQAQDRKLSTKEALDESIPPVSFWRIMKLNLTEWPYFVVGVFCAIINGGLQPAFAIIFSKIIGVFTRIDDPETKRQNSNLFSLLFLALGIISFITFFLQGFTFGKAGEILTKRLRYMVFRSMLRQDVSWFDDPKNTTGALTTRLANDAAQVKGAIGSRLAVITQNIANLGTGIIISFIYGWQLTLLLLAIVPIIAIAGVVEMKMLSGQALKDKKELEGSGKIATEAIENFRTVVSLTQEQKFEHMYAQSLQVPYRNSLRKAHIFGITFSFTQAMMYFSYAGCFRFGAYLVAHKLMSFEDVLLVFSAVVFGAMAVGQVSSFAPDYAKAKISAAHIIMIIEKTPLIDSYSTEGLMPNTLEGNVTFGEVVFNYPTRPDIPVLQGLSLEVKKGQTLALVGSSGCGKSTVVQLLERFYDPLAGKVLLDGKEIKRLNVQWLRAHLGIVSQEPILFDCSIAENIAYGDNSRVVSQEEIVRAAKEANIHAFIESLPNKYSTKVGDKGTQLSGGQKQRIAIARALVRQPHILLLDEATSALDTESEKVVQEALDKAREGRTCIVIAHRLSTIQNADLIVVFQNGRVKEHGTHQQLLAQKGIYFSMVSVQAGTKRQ

transport of the MDR1/ABCB1 substrate digoxin (MDR1/ABCB1): only a limited difference
IC50 (ABCG2; ABCG2 inside-out vesicles, 1 μM estrone-3-sulfate, SCO-101 0.001–300 µM, read-out: IC50, ATP-dependent vesicular uptake of probe substrate (remaining ABCG2 activity)): 160 nM
IC50 for MDR1/ABCB1 and MRP2/ABCC2 relative to ABCG2 (ABCG2; selectivity for ABCG2): > 100 fold
SMILES: O=C(Nc1cc(C(F)(F)F)cc(C(F)(F)F)c1)Nc1ccc(Br)cc1-c1nnn[nH]1 [SCO-101, N-[4-Bromo-2-(1H-1,2,3,4-tetrazol-5-yl)phenyl]-N′-[3,5-bis(trifluoromethyl)phenyl]urea]
